Entries after “also recorded” stand apart in the source; their conditions may differ.
Legend:
RAJI cells [1] = assay: GLuc cytotoxicity assay, RAJI-GLuc cells; assay type: cell-based, human
Method: (D) Assay for Cytotoxic Activity in vitro and in vivo: The uninfected T cells or those expressing a control vector or SIR are cocultured with the target cell lines expressing a non-secretory form of a luciferase (such as GLuc, NLuc, Turboluc 16 etc.) for 4-96 hours and induction of cell lysis examined by measuring the luciferase activity as described in PCT/US17/52344. Alternate methods for measurement of cytotoxic activity (e.g., ^51Cr release assay or LDH release assay) can be used as well. The activity of T cells expressing a SIR can be also assayed in vivo using appropriate xenograft models in immunodeficient mice.
Cell death assay. To measure cell death, a novel assay based on ectopic cytosolic expression of Gluc or NLuc was utilized as described in PCT/US17/52344 “A Non-Radioactive Cytotoxicity Assay”. The method involves expression of a reporter in a target cells in a manner so that it is preferentially retained within the healthy cells but is either released from dead and dying cells or whose activity can be preferentially measured in dead and dying cells. The preferred reporter for this assay are 1) non-secreted forms of luciferases from the copepods, such as Gaussia princeps, Pleuromamma abdominalis, Metridia pacifica, Metridia curticauda, Metridia asymmetrica, Metridia okhotensis, Metridia longa, Lucicutia ovaliformis, Heterorhabdus tanneri, and Pleuromamma scutullata 2) engineered luciferase reporters from deep sea shrimp, such as NanoLuc. The sequence of several such reporter vectors is provided in SEQ ID NO: 881 to SEQ ID NO: 887. The above vectors were used to generate retrovirus and lentiviruses which in turn were used to generate polyclonal population of several target cell lines stably expressing GLuc, NLuc, TurboLuc or MLuc7 following selection with appropriate antibiotics. Unless indicated otherwise, the target cells stably expressing the different luciferases (GLuc, Nluc, MLuc7 or TurboLuc16) were plated in triplicate in a 384 well plate in the media used for growing the target cells. Target cells which grow in suspension were generally plated at a concentration of 2-3×10^4 per well, while target cells which grow as adherent monolayers were plated at a concentration of 1-2×10^4 per well. Unless indicated otherwise, the target cells were cocultured with the genetically modified T cells (i.e. those expressing SIR or CAR) at an Effector:Target (E:T) ratio varying from 1:1 to 10:1 for 4 hours to 96 hours. In the case target cells grow as adherent cells (e.g., HeLa cells), they were allowed to attach to the bottom of the wells overnight before the T cells were added. T cells mediated induction of lysis of target cells was assayed by increase of luciferase activity as measured by BioTek synergy plate reader by directly injecting 0.5×CTZ assay buffer containing native coeloentrazine (Nanaolight).
CTZ assay. A 100× stock solution of native coelenterazine (CTZ; Nanolight, cat #303) was made by dissolving 1 mg of lyophilized CT powder in 1.1 ml of 100% Methanol supplemented with 30 μl of 6N HCl to avoid oxidation of CTZ with time. To make CTZ assay buffer, the 100× stock solution of CTZ was diluted to 0.5× concentration in PBS. Unless indicated otherwise, a total volume of 15 μl of the CTZ assay buffer (as prepared above) was added to each well of a 384-well white plate (Greiner, 384 well white plate cat #781075) containing cells expressing the non-secretory form of the luciferase in approximately 50-60 μl volume of medium and plates were read for luminescence in endpoint mode using BioTek synergyH4 plate reader. For 96 well plates, cells were plated in 200 μl of media and approximately 50 μl of 0.5×CTZ assay buffer was added. Unless indicated otherwise, the 0.5×CTZ assay buffer was used for assaying the activity of GLuc, TurboLuc16, and MLuc7. The CTZ assay buffer (diluted to 0.125× concentration) was also used for measurement of NLuc activity in some experiments (see below).

RAJI cells [2] = assay: RAJI xenograft model of lymphoma in NSG mice (survival); assay type: in vivo
Method: In vivo efficacy of SIR targeting CD19. […] SIR constructs and Gluc-PAC-G07 control construct encoding non-secretory form of Guassia Luciferase. Approximately half the cells were selected with puromycin while the other half was expanded without puromycin selection. NSG mice (Jackson Lab) were sub-lethally irradiated at a dose of 175 cGy. Approximately 24 hours post irradiation (day 2), mice were injected with 2.5×10^4 RAJI cells via tail-vein. […] Control mice (n=5) received no T cells or uninfected T cells. Mice were given human IL2 (400 IU intraperitoneally) on alternate days till the death of all mice in control group.
Approximately half the cells were selected with puromycin while the other half was expanded without puromycin selection. NSG mice (Jackson Lab) were sub-lethally irradiated at a dose of 175 cGy. Approximately 24 hours post irradiation (day 2), mice were injected with 2.5×10^4 RAJI cells via tail-vein. […] Control mice (n=5) received no T cells or uninfected T cells. Mice were given human IL2 (400 IU intraperitoneally) on alternate days till the death of all mice in control group.
SIR construct. NSG mice (Jackson Lab) were sub-lethally irradiated at a dose of 175 cGy. Approximately 24 hours post irradiation (day 2), mice were injected with 2.5×10^4 RAJI cells via tail-vein. […] SIR encoding lentivirus. Control mice (n=5) were injected with 5 million uninfected T cells or given no T cells.
SIR constructs. […] SIR were included as controls. NSG mice (n=5) were sub-lethally irradiated at a dose of 175 cGy. 24 hours post irradiation (day 2), mice were injected with 2.5×10^4 RAJI cells via tail-vein. […] Mice were given human IL2 (400 IU i.p.) on alternate days till the death of all mice in control group.
Human peripheral blood T cells isolated using CD3 magnetic beads were infected with lentiviruses expressing the indicated SIR constructs targeting Lym1 and Lym2. On day 1, the NSG mice were sub-lethally irradiated at a dose of 175 cGy. 24 hours post irradiation (day 2), mice were injected with 25×10^3 Raji cells intravenously. On day 3, the mice were treated intravenously with 10 million indicated CAR-T cells. Beginning on day 4, mice were injected with human IL-2 i.p. at a dose of 400 IU/mice every alternate day after the injection CAR-T cells till the death of all mice in control group.

[3] = FIG. 17: 2.5×10^4 RAJI cells, 5 million T cells on day 3, human IL2 (400 IU i.p.) on alternate days

Substance	lysis of target cells by increase of GLuc activity (in words) (RAJI cells [1]; E:T 1:1, 96 hours)	lysis of target cells by increase of GLuc activity (in words) (RAJI cells [1]; E:T 10:1, 4 hours)	mean Gluc values (RAJI cells [1]; E:T 10:1, 4 hours)	Median Survival (RAJI cells [2]; [3])	Median Survival (RAJI cells [2]; NSG mice, 2.5×10^4 RAJI cells via tail-vein, 5 million T cells on day 3, Table 13)	survival (in words) (RAJI cells [2]; experiment of Table 13)
CD8SP-CD19Bu12-vL-V5-[TCRb-S57C-opt1]-F-P2A-SP-CD19Bu12-vH-Myc-[TCRa-T48C-opt1]-F-F2A-PAC [SEQ ID NO:1021]	increase in GLuc activity	increase in GLuc activity	2547	51 days	–	–
CD8SP-FMC63-vL-V5-[TCRb-S57C-opt1]-F-P2A-SP-FMC63-vH-Myc-[TCRa-T48C-opt1]-F-F2A-PAC [SEQ ID NO:900]	increase in GLuc activity	increase in GLuc activity; also recorded: induced effective target cell lysis; also recorded: Modest cytotoxicity	3042	28.0 days	27 days	conferred survival advantage
